Measurements: the CheMixHub ionic liquid set

Assay: xn = mol fraction of the nth substance listed

CCCCCCCCCCCCCCCC[N+](C)(C)C.[Br-] + CCO + O
298.2 K, 101.3 kPa
Conditions	electrical conductivity [S/m]
x1 = 1.26e-06, x2 = 0.05064	0.00062
x1 = 3.09e-06, x2 = 0.05064	0.00117
x1 = 5.13e-06, x2 = 0.05064	0.00178
x1 = 7.19e-06, x2 = 0.05064	0.00236
x1 = 9.2e-06, x2 = 0.05064	0.00294
x1 = 1.12e-05, x2 = 0.05064	0.0035
x1 = 1.326e-05, x2 = 0.05064	0.00406
x1 = 1.526e-05, x2 = 0.05064	0.00458
x1 = 1.726e-05, x2 = 0.05064	0.00501
x1 = 1.932e-05, x2 = 0.05064	0.0055
x1 = 2.135e-05, x2 = 0.05064	0.00592
x1 = 2.333e-05, x2 = 0.05064	0.00629
x1 = 2.537e-05, x2 = 0.05064	0.00663
x1 = 2.735e-05, x2 = 0.05064	0.00698
x1 = 2.922e-05, x2 = 0.05064	0.00728
x1 = 3.097e-05, x2 = 0.05064	0.00754
x1 = 3.328e-05, x2 = 0.05064	0.00788

CCCCCCCCCCCCOS(=O)(=O)[O-].[Na+] + CCO + O
298 K, 100 kPa, frequency 0.001 MHz
Conditions	electrical conductivity [S/m]
x2 = 0.02563, x3 = 0.9741	0.0809
x2 = 0.06861, x3 = 0.9309	0.103
x2 = 0.06862, x3 = 0.9311	0.0828

CCCCCCCCn1cc[n+](C)c1.[Cl-] + CCO + O
298.15 K, 101 kPa
Conditions	viscosity [mPa·s]
x2 = 0.0467, x3 = 0.9348	2.514
x2 = 0.0558, x3 = 0.9143	3.908
x2 = 0.0679, x3 = 0.8854	7.008
x2 = 0.0766, x3 = 0.8576	10.5
x2 = 0.0826, x3 = 0.91	2.007
x2 = 0.0929, x3 = 0.8165	13.64
x2 = 0.0962, x3 = 0.8862	2.748
x2 = 0.0984, x3 = 0.1869	2330
x2 = 0.1218, x3 = 0.7443	18.9
x2 = 0.1329, x3 = 0.8601	2.881
x2 = 0.1594, x3 = 0.6721	21.9
x2 = 0.1807, x3 = 0.7375	7.695
x2 = 0.1867, x3 = 0.7875	3.207
x2 = 0.1968, x3 = 0.1665	855
x2 = 0.2008, x3 = 0.4721	68.1
x2 = 0.2008, x3 = 0.7927	2.822
x2 = 0.2235, x3 = 0.6582	10.37
x2 = 0.2254, x3 = 0.7596	2.603
x2 = 0.2604, x3 = 0.7162	3.164
x2 = 0.2624, x3 = 0.3089	119.1
x2 = 0.2733, x3 = 0.7208	2.591
x2 = 0.2777, x3 = 0.4267	41.41
x2 = 0.2833, x3 = 0.1486	402
x2 = 0.2958, x3 = 0.669	3.56
x2 = 0.3057, x3 = 0.6808	2.662
x2 = 0.3069, x3 = 0.6239	5.009
x2 = 0.3218, x3 = 0.5748	7.072
x2 = 0.3263, x3 = 0.5386	9.47
x2 = 0.3335, x3 = 0.6189	3.791
x2 = 0.3386, x3 = 0.6405	2.729
x2 = 0.3599, x3 = 0.268	58.73
x2 = 0.3651, x3 = 0.6297	2.282
x2 = 0.366, x3 = 0.5069	8.153
x2 = 0.3714, x3 = 0.5658	4.285
x2 = 0.3806, x3 = 0.3659	24.18
x2 = 0.3954, x3 = 0.5743	2.873
x2 = 0.4166, x3 = 0.5418	3.353
x2 = 0.4363, x3 = 0.4778	4.956
x2 = 0.4432, x3 = 0.2332	33.75
x2 = 0.4437, x3 = 0.5387	2.553
x2 = 0.4443, x3 = 0.5002	3.63
x2 = 0.4617, x3 = 0.4303	5.846
x2 = 0.5079, x3 = 0.2907	11.59
x2 = 0.532, x3 = 0.3966	3.823
x2 = 0.5377, x3 = 0.4533	1.472
x2 = 0.544, x3 = 0.4234	2.522
x2 = 0.5558, x3 = 0.186	16.16
x2 = 0.5841, x3 = 0.3951	2.156
x2 = 0.5878, x3 = 0.3295	3.918
x2 = 0.6004, x3 = 0.2361	7.378
x2 = 0.6077, x3 = 0.3891	1.864
x2 = 0.6374, x3 = 0.3073	2.912
x2 = 0.6743, x3 = 0.2932	2.278
x2 = 0.6985, x3 = 0.0625	11.08
x2 = 0.6991, x3 = 0.1777	4.71
x2 = 0.7005, x3 = 0.2845	1.923
x2 = 0.7599, x3 = 0.1919	2.375
x2 = 0.7937, x3 = 0.0428	5.553
x2 = 0.7997, x3 = 0.1184	2.964
x2 = 0.847, x3 = 0.1454	1.508

CC[n+]1ccn(C)c1.N#C[S-] + CCOS(=O)(=O)[O-].CC[n+]1ccn(C)c1
100 kPa
Conditions	electrical conductivity [S/m]	viscosity [mPa·s]
298.15 K, x1 = 0.67	1.16	43.5
308.15 K, x1 = 0.199	0.688	61.2
313.15 K, x1 = 0.429	1.19	43.1
318.15 K, x1 = 0.9505	3.6	15.57
323.15 K, x1 = 0.899	3.66	13.3
328.15 K, x1 = 0.429	–	22.05
333.15 K, x1 = 0.32	–	22.93
338.15 K, x1 = 0.899	–	9.45
343.15 K, x1 = 0.32	–	17.43
343.15 K, x1 = 0.429	–	14.75
348.15 K, x1 = 0.9505	–	7.21

OCCN(CCO)CCO + CCOS(=O)(=O)[O-].CC[n+]1ccn(C)c1
100 kPa
Conditions	electrical conductivity [S/m]	viscosity [mPa·s]
293.15 K, x1 = 0.153	–	126.2
293.15 K, x1 = 0.617	–	159.3
293.15 K, x1 = 0.967	–	714
298.15 K, x1 = 0.787	0.0457	202.4
298.15 K, x1 = 0.929	0.0087	395
298.15 K, x1 = 0.967	0.00372	478
298.15 K, x2 = 0.003	0.000422	–
298.15 K, x2 = 0.006	0.00076	–
298.15 K, x2 = 0.019	0.00206	–
303.15 K, x1 = 0.617	–	89
303.15 K, x1 = 0.866	–	203.4
303.15 K, x1 = 0.929	–	274.8
303.15 K, x1 = 0.967	–	328
303.15 K, x2 = 0.006	–	389
313.15 K, x1 = 0.153	0.66	50.4
313.15 K, x2 = 0.003	0.00117	–
313.15 K, x2 = 0.006	0.00211	–

CC[NH3+].O=[N+]([O-])[O-] + CC[N+](CC)(CC)CC.O=[N+]([O-])[O-]
Conditions	viscosity [mPa·s]
338.15 K, 101 kPa, x2 = 0	12.5

CC[NH3+].O=[N+]([O-])[O-] + CC[NH2+]CC.O=[N+]([O-])[O-]
Conditions	electrical conductivity [S/m]
323.15 K, 101 kPa, frequency 0.00293 MHz, x2 = 0	4.22

101 kPa, x2 = 0
Conditions	viscosity [mPa·s]
323.15 K	17.6
333.15 K	13.8

CC[NH3+].O=[N+]([O-])[O-] + CC[NH+](CC)CC.O=[N+]([O-])[O-]
101 kPa, frequency 0.00293 MHz, x2 = 0
Conditions	electrical conductivity [S/m]
293.15 K	1.93
298.15 K	2.25
313.15 K	3.37
323.15 K	4.22

101 kPa, x2 = 0
Conditions	viscosity [mPa·s]
293.15 K	43.5
298.15 K	36.5
313.15 K	22.8
323.15 K	17.6

CC[n+]1ccn(C)c1.N#C[S-] + CC[n+]1ccn(C)c1.CS(=O)(=O)[O-] + O
100 kPa, x1 = 1, x2 = 0
Conditions	viscosity [mPa·s]
298.15 K	23.91
323.15 K	11.7

CC[n+]1ccn(C)c1.N#C[S-] + CC[n+]1ccn(C)c1.N#C[N-]C#N
100 kPa, x1 = 1
Conditions	electrical conductivity [S/m]	viscosity [mPa·s]
318.15 K	3.92	12.98
328.15 K	–	10.25
338.15 K	–	8.3
343.15 K	–	7.53

CC[S+](CC)CCOCCOCCOCC[S+](CC)CC.O=S(=O)([N-]S(=O)(=O)C(F)(F)F)C(F)(F)F.O=S(=O)([N-]S(=O)(=O)C(F)(F)F)C(F)(F)F + CC[n+]1ccn(C)c1.N#C[N-]C#N + O=S(=O)([N-]S(=O)(=O)C(F)(F)F)C(F)(F)F.[Li+]
100 kPa, x1 = 0.1475, x2 = 0.7497
Conditions	electrical conductivity [S/m]
298 K	0.673
303 K	0.826
313 K	1.15
323 K	1.46
333 K	1.79
343 K	2.05

CC[S+](CC)CCOCCOCC[S+](CC)CC.O=S(=O)([N-]S(=O)(=O)C(F)(F)F)C(F)(F)F.O=S(=O)([N-]S(=O)(=O)C(F)(F)F)C(F)(F)F + CC[n+]1ccn(C)c1.N#C[N-]C#N + O=S(=O)([N-]S(=O)(=O)C(F)(F)F)C(F)(F)F.[Li+]
100 kPa, x1 = 0.1539, x2 = 0.744
Conditions	electrical conductivity [S/m]
298 K	0.615
303 K	0.691
313 K	0.953
323 K	1.22
333 K	1.57
343 K	1.93

C[N+]1(CCOCCOCCOCCOCC[N+]2(C)CCCC2)CCCC1.N#C[N-]C#N.N#C[N-]C#N + CC[n+]1ccn(C)c1.N#C[N-]C#N + O=S(=O)([N-]S(=O)(=O)C(F)(F)F)C(F)(F)F.[Li+]
100 kPa, x1 = 0.2352, x2 = 0.6725
Conditions	electrical conductivity [S/m]
298 K	0.37
303 K	0.435
313 K	0.646
323 K	0.941
333 K	1.2
343 K	1.51

C[N+]1(CCOCCOCC[N+]2(C)CCCC2)CCCC1.N#C[N-]C#N.N#C[N-]C#N + CC[n+]1ccn(C)c1.N#C[N-]C#N + O=S(=O)([N-]S(=O)(=O)C(F)(F)F)C(F)(F)F.[Li+]
electrical conductivity [S/m], 100 kPa
Conditions	298 K	303 K	313 K	323 K	333 K	343 K
x1 = 0.2606, x2 = 0.6156	0.561	0.658	0.963	1.27	1.61	1.94
x1 = 0.2713, x2 = 0.6408	0.911	1.01	1.37	1.71	2.12	2.54

C[N+]1(CCOCC[N+]2(C)CCCC2)CCCC1.N#C[N-]C#N.N#C[N-]C#N + CC[n+]1ccn(C)c1.N#C[N-]C#N + O=S(=O)([N-]S(=O)(=O)C(F)(F)F)C(F)(F)F.[Li+]
100 kPa, x1 = 0.2938, x2 = 0.621
Conditions	electrical conductivity [S/m]
298 K	0.622
303 K	0.76
313 K	1.04
323 K	1.38
333 K	1.76
343 K	2.24

COC(=O)OC + CC[n+]1ccn(C)c1.O=S(=O)([N-]S(=O)(=O)C(F)(F)F)C(F)(F)F
101.3 kPa, x2 = 0
Conditions	viscosity [mPa·s]
288.15 K	0.668
293.15 K	0.628
298.15 K	0.588
303.15 K	0.553
308.15 K	0.524

C[N+]1(CCOCCOCC[N+]2(C)CCCC2)CCCC1.N#C[N-]C#N.N#C[N-]C#N + CC[n+]1ccn(C)c1.O=S(=O)([N-]S(=O)(=O)C(F)(F)F)C(F)(F)F + O=S(=O)([N-]S(=O)(=O)C(F)(F)F)C(F)(F)F.[Li+]
100 kPa, x1 = 0.4178, x2 = 0.4469
Conditions	electrical conductivity [S/m]
298 K	0.244
303 K	0.317
313 K	0.431
323 K	0.64
333 K	0.832
343 K	1.1

CC[n+]1ccn(C)c1.N#C[S-] + CC[n+]1ccn(C)c1.O=S(=O)([O-])C(F)(F)F
Conditions	viscosity [mPa·s]
293 K, 100 kPa, x1 = 0.5	36.4

OCCN(CCO)CCO + CC[n+]1ccn(C)c1.O=S(=O)([O-])C(F)(F)F
100 kPa
Conditions	electrical conductivity [S/m]	viscosity [mPa·s]
293.15 K, x1 = 0.084	–	52.9
298.15 K, x1 = 0.426	0.357	65.6
298.15 K, x1 = 0.539	0.232	87.6
298.15 K, x1 = 0.875	0.019	320
298.15 K, x1 = 0.969	0.00321	–
298.15 K, x2 = 0.003	0.000411	–
298.15 K, x2 = 0.006	0.00071	–
298.15 K, x2 = 0.017	0.00188	–
303.15 K, x1 = 0.084	–	36.1
303.15 K, x1 = 0.167	–	37
303.15 K, x1 = 0.641	–	87.1
303.15 K, x2 = 0.006	–	400
313.15 K, x1 = 0.167	1.19	26
313.15 K, x1 = 0.723	0.185	65.8
313.15 K, x2 = 0.003	0.00117	–
313.15 K, x2 = 0.006	0.00204	198.3
